Results from US6383543B1, “Process for the extraction of an organic salt from plants, the salt, and other similar salts” (RAD Natural Technologies Ltd., priority 1998, dated 2002).

Assays:
[1] = Antioxidant effect in oil in water emulsions containing soybean oil, TBA test at 50° C.; details: oil in water emulsion
Description: (a) Oil in water emulsions were prepared from soybean oil (10%), Tween 80 (7%), Span 80 (3%), water (80%) and antioxidant (0.1 or 0.02%).

[2] = Antioxidant effect in water in oil emulsions from soybean oil, Rancimat (AOM) test at 100° C.; details: water in oil emulsion
[3] = Antioxidant effect in bulk oil (soybean oil) at 60° C.
Description: A concentrate was first prepared containing 40% lecithin, 40% oil (e.g. soybean oil), 20% propylene glycol and 4% based on the foregoing mixture of 65% (≡2.6% pure) sodium rosmarinate.

Solubility = assay type: physicochemical; details: for Solubility: lipid or water; for solubility in acetone: b32: essentially 100% acetone
[4] = yes/no; cited from earlier work
[5] = Comparative efficiency: time the antioxidant continues to inhibit oxidation of linoleic acid; assay type: biochemical; details: time until antioxidant is consumed and rate of change of absorption at 234 nm reverts to control
Description: The method is based on the rate of oxidation of linoleic acid (LA) to its conjugated diene hydroperoxide (Pryor et al., in J. Org. […] A 1% LA aq. emulsion was prepared with 1% Tween 20 and 0.05M sodium phosphate buffer (pH 7.4). A control sample contained 0.025 ml of the LA emulsion+2.87 ml. of the buffer+0.1 ml 0.05M ABAP; a test sample contained 0.05 ml of the LA emulsion+2.7-2.8 ml of the buffer+0.1 ml 0.05M ABAP+0.05-0.1 ml of the sample under test. Absorption at 234 nm is followed for 5 minutes to establish the uninhibited rate of autoxidation. […] The test antioxidant was added and the inhibited reaction was followed until the antioxidant was consumed and the rate of the absorption change at 234 nm reverted to that observed at the outset.

[6] = Antioxidant effect in emulsions containing β-carotene; details: over a 100 hour time period; 0.1%
Description: A model emulsion was then prepared by adding double-distilled water (25 ml) to the residue and diluting to 500 ml with phosphate buffer (pH 7.0). […] […] A control sample contained no antioxidant but instead, 95% ethanol (2 ml).

[7] = Stabilization of ascorbic acid (50% ethanol, 60° C., 24 hours, HPLC); details: 10 mg/ml ascorbic acid, after 60° C.
Description: The experiment was repeated with the addition of 0.035 mg or 0.07 mg sodium rosmarinate.

Compound	Solubility (Solubility)	Toxicity [4]	Efficiency of 10 μg [5] [h]	other results
COc1ccc(O)c(C(C)(C)C)c1 [BHA, butylated hydroxyanisole]				Days until oxidation ([1]; antioxidant 0.02%): 2 days; Hours until oxidation ([2]; antioxidant 0.02%): 9.54 h; Days until oxidation ([3]; concentration 0.02%): 4 days
Cc1cc(C(C)(C)C)c(O)c(C(C)(C)C)c1 [BHT, butylated hydroxytoluene]	lipid	yes	814	
CCCOC(=O)c1cc(O)c(O)c(O)c1 [PG, propyl gallate]	lipid	yes	500	
CC(C)(C)c1cc(O)ccc1O [TBHQ, tertiary-butylhydroxyquinone]	lipid	yes	432	
Cc1c(C)c2c(c(C)c1O)CCC(C)(C(=O)O)O2 (stereo not drawn) [Trolox]	water	no	650	
O=C1O[C@H]([C@@H](O)CO)C(O)=C1O [Vitamin C, ascorbic acid]				Days until oxidation ([1]; antioxidant 0.1%): 1 days; Hours until oxidation ([2]; antioxidant 0.1%): 25.20 h; protection of β-carotene [6]: little protection
O=C(/C=C/c1ccc(O)c(O)c1)OC(Cc1ccc(O)c(O)c1)C(=O)O (stereo not drawn) [rosmarinic acid]				solubility in acetone (Solubility): acetone-soluble; % ascorbic acid ([7]; +0.035 mg additive): 68%; % ascorbic acid ([7]; +0.07 mg additive): 90%
O=C(/C=C/c1ccc(O)c(O)c1)O[C@H](Cc1ccc(O)c(O)c1)C(=O)O [sodium rosmarinate]	water	no	1413	solubility in acetone (Solubility): virtually acetone-insoluble; Days until oxidation ([3]; concentration 0.005% (as 0.2% of the concentrate)): 7 days; Days until oxidation ([3]; concentration 0.013% (as 0.5% of the concentrate)): 8 days
Vitamin E	lipid	no	444	Days until oxidation ([1]; antioxidant 0.1%): 1 days; Hours until oxidation ([2]; antioxidant 0.1%): 9.58 h; Days until oxidation ([3]; concentration 0.06%): 4 days
